Test results: patent publication US20050107289A1, “Anti-microbial peptides and compositions” (priority 2001, published 2005)
Like-named read-outs stand apart in the source and are kept apart here. Non-standard residues stand in square brackets, D forms with d. Residues, ends and D or L forms follow the SMILES beside them.

Tests used:
[1] = system: vancomycin-resistant Enterococus faecalis (VRE)(ATCC 51575); type: cell-based, Enterococcus faecalis; parameters: key to VRE (in vitro activity): peptide concentration in μg/ml (broth dilution assay); conditions: Table 9
Procedure: (§1) The antimicrobial activity of the peptides was determined using a broth dilution assay essentially as descried in the guidelines of the National Committee for […] (NCCLS) [National Committee for Clinical Laboratory Standards. Methods for dilution antimicrobial susceptibility tests for bacteria that grow aerobically. Fourth edition. Approved Standard (1997). Document M7-A4. […] The microdilution method has the advantages of requiring less amount of peptide for each assay and the possibility of multiple simultaneous inoculations and was used in most studies. Several of the strains of bacteria tested are further described in Table 3.
(§2) Preparation of peptide solutions. Stock peptide solutions were prepared in 5% DMSO in aq. sucrose (9%). Determination of peptide concentrations was done by quantitative HPLC analysis using known concentrations of internal standards and/or by measuring UV absorption of tryptophane-containing peptide solutions in H2O (λ=280 εTrp: 5690). Serial 2-fold dilutions were made in the above DMSO/aq. sucrose (9%) mixture with concentrations ranging approximately 400-2 μg/ml and aliquots were dispensed in test tubes (100 μl) for the macrodilution test or in microtiter plates (20 μl) for the microdilution assays.
(§3) Inoculum preparation. Overnight cultures of different microorganisms grown in suitable media were diluted 4000 times to an approximate inoculum size of 2.5×10^5 cfu/ml.
(§4) Macrodilution method. Macrodilution methods were performed using procedures similar to those described in the National Committee for Clinical Laboratory Standards. Methods for dilution antimicrobial susceptibility tests for bacteria that grow aerobically. Fourth edition. Approved Standard (1997). Document M7-A4. (NCCLS,Villanova, Pa., 1997). Two ml aliquots of the above inoculum were dispensed to test tubes containing different peptide solutions.
(§5) Microdilution method. Microdilution methods were performed using procedures similar to those described in the National Committee for Clinical Laboratory Standards. Methods for dilution antimicrobial susceptibility tests for bacteria that grow aerobically. Fourth edition. Approved Standard (1997). Document M7-A4.

[2] = system: S. aureus (MRSA) ATCC 33591; type: cell-based, Staphylococcus aureus; conditions: Table 9
Procedure: as §1, §2, §3, §4, §5

[3] = system: murine red blood cells; assay: Red blood cell hemolysis; type: cell-based, mouse
Procedure: Selectivity of cyclic peptides for bacterial over mammalian cells was evaluated by measuring red blood cell hemolytic activities as described in Tosteson, M. T. Holmes, S. J., Razin, M. and Tosteson, D. C. Melittin Lysis of Red Cells, J. Membrane Biol. 87, 35-44(1985). Heparinized murine blood was centrifuged at 1000×g for 10 minutes. The supernatant and the buffy coat were removed. Erythrocytes were washed three times with 0.9% saline solution and then resuspended to a concentration of 5% in saline containing 10% FBS (v/v). Red blood cells were then treated with serial dilutions of test peptides in a 96 well plate at 37° C. for 30 minutes. Control samples included a saline solution arid 1% Triton X-100 as 0 and 100% hemolysis, respectively. In some cases, mellitin was used as a further control. Mellitin is a linear peptide that is hemolytic against mammalian red blood cells in vitro at a concentration of about 10 μg/ml. Plates were centrifuged at 1000 g for 10 minutes. Aliquots of the supernatant were diluted 2 times with saline solution and the absorbance was measured at 560 nm.

[4] = media c: Brain Heart Infusion (BHI)
[5] = media b: cation adjusted Meuller Hinton broth (MHBII)
[6] = media a: anti-microbial media-3 (AM-3)

Compound	VRE (in vitro activity) [1, 4]	MRSA (in vitro activity) [2, 5]	RBC Hemolysis (HD50) [3]	MRSA (in vitro activity) ([2]; media b: cation adjusted Meuller Hinton broth (MHBII), listed as [KSKLILIL] (57))	VRE (in vitro activity) ([1]; media a: AM-3)	MRSA (in vitro activity) [2, 6]	MRSA (in vitro activity) ([2]; media b: cation adjusted Meuller Hinton broth (MHBII), listed as [KSKLFLFL] (54))
CC(C)C[C@@H]1NC(=O)[C@@H](Cc2c[nH]c3ccccc23)NC(=O)[C@H](CCCCN)NC(=O)[C@@H](Cc2c[nH]cn2)NC(=O)[C@H](CCCCN)NC(=O)[C@@H](Cc2c[nH]cn2)NC(=O)[C@H](CCCCN)NC(=O)[C@@H](Cc2c[nH]c3ccccc23)NC1=O [SEQ ID NO:85, [KHKHKWLW]] (cyclo(K[dH]K[dH]K[dW]L[dW]))	6	6	150	–	–	–	–
CC[C@H](C)[C@@H]1NC(=O)[C@@H](CC(C)C)NC(=O)[C@H](CCCCN)NC(=O)[C@@H](CO)NC(=O)[C@H](CCCCN)NC(=O)[C@@H](CC(C)C)NC(=O)[C@H]([C@@H](C)CC)NC(=O)[C@@H](CC(C)C)NC1=O [SEQ ID NO:57, [KSKLILIL]] (cyclo(I[dL]I[dL]K[dS]K[dL]))	>200	–	>200	200	–	–	–
CC(C)C[C@@H]1NC(=O)[C@@H](Cc2c[nH]c3ccccc23)NC(=O)[C@H](CCC(N)=O)NC(=O)[C@@H](Cc2c[nH]c3ccccc23)NC(=O)[C@H](CCCCN)NC(=O)[C@@H](Cc2c[nH]c3ccccc23)NC1=O [SEQ ID NO:116, [KWQWLW]] (cyclo(K[dW]Q[dW]L[dW]))	–	–	>16	–	12	12	–
CC(C)C[C@@H]1NC(=O)[C@@H](Cc2c[nH]c3ccccc23)NC(=O)[C@H](CCC(N)=O)NC(=O)[C@@H](CCCCN)NC(=O)[C@H](CCCCN)NC(=O)[C@@H](Cc2c[nH]c3ccccc23)NC1=O [SEQ ID NO:122, [KKQWLW]] (cyclo(K[dK]Q[dW]L[dW]))	–	–	>215	–	81	27	–
CC(C)[C@H]1NC(=O)[C@H](Cc2ccc(O)cc2)NC(=O)[C@@H](CO)NC(=O)[C@H](CCCCN)NC(=O)[C@@H](CO)NC(=O)[C@H](Cc2c[nH]c3ccccc23)NC1=O [SEQ ID NO:127, [KSYVWS]] (cyclo(K[dS]Y[dV]W[dS]))	>200	>200	>200	–	–	–	–
CC(C)C[C@@H]1NC(=O)[C@@H](Cc2c[nH]c3ccccc23)NC(=O)[C@H](CCCCN)NC(=O)[C@@H](Cc2ccccc2)NC(=O)[C@H](CCCCN)NC(=O)[C@@H](Cc2c[nH]c3ccccc23)NC1=O [SEQ ID NO:128, [KFKWLW]] (cyclo(K[dF]K[dW]L[dW]))	–	–	>61	–	43	14	–
CC(C)C[C@@H]1NC(=O)[C@@H](Cc2c[nH]c3ccccc23)NC(=O)[C@H](CCC(N)=O)NC(=O)[C@@H](CC(N)=O)NC(=O)[C@H](CCCCN)NC(=O)[C@@H](Cc2c[nH]c3ccccc23)NC1=O [SEQ ID NO:123, [KNQWLW]] (cyclo(K[dN]Q[dW]L[dW]))	–	–	>74	–	>74	>74	–
CC(C)C[C@H]1NC(=O)[C@H](CCCCN)NC(=O)[C@@H](CO)NC(=O)[C@H](CCCCN)NC(=O)[C@@H](CC(C)C)NC(=O)[C@H](Cc2ccccc2)NC(=O)[C@@H](CC(C)C)NC(=O)[C@H](Cc2ccccc2)NC1=O [SEQ ID NO:54, [KSKLFLFL]] (cyclo(F[dL]F[dL]K[dS]K[dL]))	200	–	>200	–	–	–	50
CC(C)C[C@H]1NC(=O)[C@H](CCCCN)NC(=O)[C@@H](Cc2c[nH]cn2)NC(=O)[C@H](CCC(N)=O)NC(=O)[C@@H](Cc2c[nH]cn2)NC(=O)[C@H](CCCCN)NC(=O)[C@@H](CC(C)C)NC(=O)[C@H](Cc2c[nH]c3ccccc23)NC1=O [SEQ ID NO:86, [KHQHKLWL]] (cyclo(K[dH]Q[dH]K[dL]W[dL]))	100	100	>200	–	–	–	–
CC(C)C[C@H]1NC(=O)[C@H](C)NC(=O)[C@@H](CC(C)C)NC(=O)[C@H](CCCCN)NC(=O)[C@@H](CO)NC(=O)[C@H](CCCCN)NC(=O)[C@@H](CC(C)C)NC(=O)[C@H](C)NC1=O [SEQ ID NO:53, [KSKLALAL]] (cyclo(K[dS]K[dL]A[dL]A[dL]))	>280	35	>280	–	–	–	–
CC(C)C[C@H]1NC(=O)[C@H](Cc2c[nH]c3ccccc23)NC(=O)[C@@H](CC(C)C)NC(=O)[C@H](CCCCN)NC(=O)[C@@H]([C@H](C)O)NC(=O)[C@H](CCCCN)NC(=O)[C@@H](CC(C)C)NC(=O)[C@H](Cc2c[nH]c3ccccc23)NC1=O [SEQ ID NO:66, [KTKLWLWL]] (cyclo(K[dT]K[dL]W[dL]W[dL]))	18	18	150	–	–	–	–
CC(C)C[C@H]1NC(=O)[C@H](CCCCN)NC(=O)[C@@H](CO)NC(=O)[C@H](CCCCN)NC(=O)[C@@H](CC(C)C)NC(=O)[C@H](Cc2c[nH]cn2)NC(=O)[C@@H](CC(C)C)NC(=O)[C@H](Cc2c[nH]cn2)NC1=O [SEQ ID NO:103, [KSKLHLHL]] (cyclo(K[dS]K[dL]H[dL]H[dL]))	>320	>320	>320	–	–	–	–
CC(C)C[C@H]1NC(=O)[C@H](CCCCN)NC(=O)[C@@H](CO)NC(=O)[C@H](CCCCN)NC(=O)[C@@H](CC(C)C)NC(=O)[C@H](Cc2c[nH]c3ccccc23)NC(=O)[C@@H](CC(C)C)NC(=O)[C@H](Cc2c[nH]c3ccccc23)NC1=O [SEQ ID NO:61, [KSKLWLWL]] (cyclo(K[dS]K[dL]W[dL]W[dL]))	15	15	125	–	–	–	–
C[C@H](O)[C@H]1NC(=O)[C@H](CCCNC(=N)N)NC(=O)[C@@H](CO)NC(=O)[C@H](CCC(N)=O)NC(=O)[C@@H](Cc2c[nH]cn2)NC(=O)[C@H](CCCCN)NC1=O [SEQ ID NO:130, [KHQSRT]] (cyclo(K[dH]Q[dS]R[dT]))	>200	>200	>200	–	–	–	–
N=C(N)NCCC[C@H]1NC(=O)[C@H](CCCCN)NC(=O)[C@@H](Cc2ccccc2)NC(=O)[C@H](Cc2c[nH]c3ccccc23)NC(=O)[C@@H](Cc2ccccc2)NC(=O)[C@H](CCCCN)NC(=O)[C@@H](Cc2ccccc2)NC(=O)[C@H](CCC(N)=O)NC1=O [SEQ ID NO:102, [KRQFKFWF]] (cyclo(K[dR]Q[dF]K[dF]W[dF]))	12	12	>200	–	–	–	–
CC(C)C[C@H]1NC(=O)[C@H](Cc2ccccc2)NC(=O)[C@@H](CC(C)C)NC(=O)[C@H](CCCCN)NC(=O)[C@@H]([C@H](C)O)NC(=O)[C@H](CCCCN)NC(=O)[C@@H](CC(C)C)NC(=O)[C@H](Cc2ccccc2)NC1=O [SEQ ID NO:65, [KTKLFLFL]] (cyclo(K[dT]K[dL]F[dL]F[dL]))	>240	60	>240	–	–	–	–
CC(C)C[C@H]1NC(=O)CNC(=O)[C@@H](CC(C)C)NC(=O)[C@H](CCCCN)NC(=O)[C@@H](CO)NC(=O)[C@H](CCCCN)NC(=O)[C@@H](CC(C)C)NC(=O)CNC1=O [SEQ ID NO:56, [KSKLGLGL]] (cyclo(K[dS]K[dL]G[dL]G[dL]))	>240	>240	>240	–	–	–	–
